Reference: patent US10906940B2, “Antimicrobial peptides, pharmaceutical compositions, and methods of use thereof” (priority 2014, dated 2021)
≈ marks a conversion by molar mass, not a printed value. Where a SMILES comes first, the peptide text is derived from it. Bridges are numbered along the chain shown (N, C = ends). [ ]: non-standard residue; d: D form. The star is where a group is joined. Pentadecanoyl = CCCCCCCCCCCCCCC(=O)*; Undecanoyl = CCCCCCCCCCC(=O)*; dOrn = NCCC[C@@H](N)C(=O)O

Legend:
E. coli CVM 15100 (mir1) = type: cell-based, Escherichia coli
Text: (§1) The same MIC assay as in Example 6 was used to determine the antimicrobial susceptibility of Compound A, L-form (FIG. 15), and several variants. One variant was Compound A, D-form, with D-Lysine at position 7. Compound B is a variant in the fatty acid chain, with a fatty acid chain composition of C15H29O, and having D-Lys at position 7. Compound C is a variant in the fatty acid chain with a fatty acid chain composition of C11H21O, and having D-Lys at position 7. Variant D is a sequence variant with Phe at position 6 of the cyclic peptide, and having D-Lys at position 7. All variants were chemically synthesized.

[1] = tested on: E. coli CVM 40133 (ctx-m-14); type: cell-based, Escherichia coli
Text: as §1

[2] = tested on: E. coli CVM 40132 (ctx-m-9); type: cell-based, Escherichia coli
Text: as §1

[3] = tested on: E. coli CVM 35778 (ctx-m-2); type: cell-based, Escherichia coli
Text: as §1

[4] = tested on: E. coli CVM 40141 (imp-1); type: cell-based, Escherichia coli
Text: as §1

E. coli CVM 15103 (tem2) = type: cell-based, Escherichia coli
Text: as §1

[5] = tested on: E. coli CVM 40137 (DHA-1); type: cell-based, Escherichia coli
Text: as §1

[6] = tested on: E. coli CVM 40138 (LCR-1); type: cell-based, Escherichia coli
Text: as §1

E. coli CVM40148 (veb-1) = type: cell-based, Escherichia coli
Text: as §1

[7] = tested on: E. coli CVM 40143 (act-1); type: cell-based, Escherichia coli
Text: as §1

[8] = tested on: E. coli CVM 40126 (oxa-1); type: cell-based, Escherichia coli
Text: as §1

[9] = tested on: E. coli CVM 40129 (oxa-5); type: cell-based, Escherichia coli
Text: as §1

E. coli CVM40146 (vim-1) = type: cell-based, Escherichia coli
Text: as §1

[10] = tested on: E. coli CVM 40147 (vim-2); type: cell-based, Escherichia coli
Text: as §1

[11] = tested on: E. coli CVM 40139 (fox-1); type: cell-based, Escherichia coli
Text: as §1

[12] = tested on: E. coli CVM 40128 (oxa-7); type: cell-based, Escherichia coli
Text: as §1

[13] = tested on: E. coli CVM 40127 (oxa-2); type: cell-based, Escherichia coli
Text: as §1

[14] = tested on: E. coli CVM 40130 (oxa-9); type: cell-based, Escherichia coli
Text: as §1

[15] = tested on: E. coli CVM 40136 (tem 52b); type: cell-based, Escherichia coli
Text: as §1

[16] = tested on: E. coli CVM 40131 (ctx-m-2); type: cell-based, Escherichia coli
Text: as §1

[17] = tested on: E. coli CVM 40134 (ctx-m-15); type: cell-based, Escherichia coli
Text: as §1

E. coli CVM 15104 (shv3) = type: cell-based, Escherichia coli
Text: as §1

[18] = tested on: Serratia marcescens SBJ-9047; type: cell-based; conditions: SBJ-9047
Text: as §1

[19] = tested on: Serratia marcescens SBJ-8283; type: cell-based; conditions: SBJ-8283
Text: as §1

[20] = tested on: Serratia marcescens SAMN 04276915; type: cell-based; conditions: SAMN 04276915
Text: as §1

[21] = tested on: Salmonella CVM 40118 (oxa-1); type: cell-based
Text: as §1

[22] = tested on: Serratia marcescens SAMN 04276914; type: cell-based; conditions: SAMN 04276914
Text: as §1

[23] = tested on: S. Newport CVM 40115 (cmy 2); type: cell-based, Salmonella
Text: as §1

[24] = tested on: S. Keur massar CVM 40135 (shv12); type: cell-based, Salmonella
Text: as §1

[25] = tested on: S. Typhimurium CVM 40117 (ctx-m-5); type: cell-based, Salmonella
Text: as §1

[26] = tested on: S. Heidelberg CVM 40140 (cmy-2); type: cell-based, Salmonella
Text: as §1

[27] = tested on: S. Bareilly CVM40145 (ACC-1); type: cell-based, Salmonella
Text: as §1

S. aureus 12 = test: microbe, parasite or virus in culture; type: cell-based, Staphylococcus aureus; conditions: 12
Text: as §1

S. aureus 2 = test: microbe, parasite or virus in culture; type: cell-based, Staphylococcus aureus; conditions: 2
Text: as §1

S. aureus 10 = test: microbe, parasite or virus in culture; type: cell-based, Staphylococcus aureus; conditions: 10
Text: as §1

S. aureus 4 = test: microbe, parasite or virus in culture; type: cell-based, Staphylococcus aureus; conditions: 4
Text: as §1

S. aureus 6 = test: microbe, parasite or virus in culture; type: cell-based, Staphylococcus aureus; conditions: 6
Text: as §1

S. aureus 19 = test: microbe, parasite or virus in culture; type: cell-based, Staphylococcus aureus; conditions: 19
Text: as §1

S. aureus 8 = test: microbe, parasite or virus in culture; type: cell-based, Staphylococcus aureus; conditions: 8
Text: as §1

S. aureus 14 = test: microbe, parasite or virus in culture; type: cell-based, Staphylococcus aureus; conditions: 14
Text: as §1

SMILES	MIC (E. coli CVM 15100 (mir1)) [µg/mL]	MIC [1] [µg/mL]	MIC [2] [µg/mL]	MIC [3] [µg/mL]	MIC [4] [µg/mL]	MIC (E. coli CVM 15103 (tem2)) [µg/mL]	MIC [5] [µg/mL]	MIC [6] [µg/mL]	MIC (E. coli CVM40148 (veb-1)) [µg/mL]	MIC [7] [µg/mL]	MIC [8] [µg/mL]	MIC [9] [µg/mL]	MIC (E. coli CVM40146 (vim-1)) [µg/mL]	MIC [10] [µg/mL]	MIC [11] [µg/mL]	MIC [12] [µg/mL]	MIC [13] [µg/mL]	MIC [14] [µg/mL]	MIC [15] [µg/mL]	MIC [16] [µg/mL]	further results
CCCCCCCCCCCCCCC(=O)N[C@H](CCCN)C(=O)N[C@H](C(=O)N[C@@H]1C(=O)N[C@H](CCCN)C(=O)N[C@@H](CO)C(=O)N[C@@H](Cc2ccc(O)cc2)C(=O)N[C@H](CCCCN)C(=O)N[C@H](CO)C(=O)N[C@@H]([C@@H](C)CC)C(=O)N2CCC[C@H]2C(=O)N[C@@H]([C@@H](C)CC)C(=O)N2CCC[C@H]2C(=O)N[C@@H]([C@@H](C)CC)C(=O)O[C@@H]1C)C(C)C [Compound B] (Pentadecanoyl-[dOrn]VT[dOrn]SY[dK][dS]IPIPI; ester 3-C; N-terminus assumed)	16 (≈ 9.68 µM)	16 (≈ 9.68 µM)	16 (≈ 9.68 µM)	32 (≈ 19.4 µM)	16 (≈ 9.68 µM)	8 (≈ 4.84 µM)	16 (≈ 9.68 µM)	8 (≈ 4.84 µM)	8 (≈ 4.84 µM)	16 (≈ 9.68 µM)	4 (≈ 2.42 µM)	8 (≈ 4.84 µM)	8 (≈ 4.84 µM)	16 (≈ 9.68 µM)	16 (≈ 9.68 µM)	8 (≈ 4.84 µM)	16 (≈ 9.68 µM)	8 (≈ 4.84 µM)	8 (≈ 4.84 µM)	8 (≈ 4.84 µM)	MIC [17]: 8 µg/mL (≈ 4.84 µM); MIC (E. coli CVM 15104 (shv3)): 16 µg/mL (≈ 9.68 µM); MIC [18]: ≥128 µg/mL; MIC [19]: 32 µg/mL (≈ 19.4 µM); MIC [20]: ≥128 µg/mL; MIC [21]: 4 µg/mL (≈ 2.42 µM); MIC [22]: 64 µg/mL (≈ 38.7 µM); MIC [23]: 16 µg/mL (≈ 9.68 µM); MIC [24]: 32 µg/mL (≈ 19.4 µM); MIC [25]: 16 µg/mL (≈ 9.68 µM); MIC [26]: 16 µg/mL (≈ 9.68 µM); MIC [27]: 32 µg/mL (≈ 19.4 µM); MIC (S. aureus 12): 4 µg/mL (≈ 2.42 µM); MIC (S. aureus 2): 4 µg/mL (≈ 2.42 µM); MIC (S. aureus 10): 4 µg/mL (≈ 2.42 µM); MIC (S. aureus 4): 4 µg/mL (≈ 2.42 µM); MIC (S. aureus 6): 8 µg/mL (≈ 4.84 µM); MIC (S. aureus 19): 4 µg/mL (≈ 2.42 µM); MIC (S. aureus 8): 4 µg/mL (≈ 2.42 µM); MIC (S. aureus 14): 4 µg/mL (≈ 2.42 µM)
CCCCCCCCCCC(=O)N[C@H](CCCN)C(=O)N[C@H](C(=O)N[C@@H]1C(=O)N[C@H](CCCN)C(=O)N[C@@H](CO)C(=O)N[C@@H](Cc2ccc(O)cc2)C(=O)N[C@H](CCCCN)C(=O)N[C@H](CO)C(=O)N[C@@H]([C@@H](C)CC)C(=O)N2CCC[C@H]2C(=O)N[C@@H]([C@@H](C)CC)C(=O)N2CCC[C@H]2C(=O)N[C@@H]([C@@H](C)CC)C(=O)O[C@@H]1C)C(C)C [Compound C] (Undecanoyl-[dOrn]VT[dOrn]SY[dK][dS]IPIPI; ester 3-C; N-terminus assumed)	8 (≈ 5.01 µM)	8 (≈ 5.01 µM)	8 (≈ 5.01 µM)	16 (≈ 10 µM)	32 (≈ 20 µM)	8 (≈ 5.01 µM)	8 (≈ 5.01 µM)	8 (≈ 5.01 µM)	8 (≈ 5.01 µM)	8 (≈ 5.01 µM)	8 (≈ 5.01 µM)	8 (≈ 5.01 µM)	8 (≈ 5.01 µM)	16 (≈ 10 µM)	8 (≈ 5.01 µM)	8 (≈ 5.01 µM)	8 (≈ 5.01 µM)	8 (≈ 5.01 µM)	8 (≈ 5.01 µM)	8 (≈ 5.01 µM)	MIC [17]: 8 µg/mL (≈ 5.01 µM); MIC (E. coli CVM 15104 (shv3)): 8 µg/mL (≈ 5.01 µM); MIC [18]: 64 µg/mL (≈ 40.1 µM); MIC [19]: 32 µg/mL (≈ 20 µM); MIC [20]: ≥128 µg/mL; MIC [21]: 4 µg/mL (≈ 2.51 µM); MIC [22]: 64 µg/mL (≈ 40.1 µM); MIC [23]: 16 µg/mL (≈ 10 µM); MIC [24]: 16 µg/mL (≈ 10 µM); MIC [25]: 16 µg/mL (≈ 10 µM); MIC [26]: 16 µg/mL (≈ 10 µM); MIC [27]: 16 µg/mL (≈ 10 µM); MIC (S. aureus 12): 8 µg/mL (≈ 5.01 µM); MIC (S. aureus 2): 8 µg/mL (≈ 5.01 µM); MIC (S. aureus 10): 8 µg/mL (≈ 5.01 µM); MIC (S. aureus 4): 8 µg/mL (≈ 5.01 µM); MIC (S. aureus 6): 8 µg/mL (≈ 5.01 µM); MIC (S. aureus 19): 8 µg/mL (≈ 5.01 µM); MIC (S. aureus 8): 8 µg/mL (≈ 5.01 µM); MIC (S. aureus 14): 8 µg/mL (≈ 5.01 µM)
